Experimental data reported in US11407999B2, “Pharmaceutical composition for preventing or treating angiogenesis relating ocular diseases comprising inhibitors of MCT expression or activity” (Seoul National University R&DB Foundation, priority 2019, dated 2022).

Legend:
CNV mice [1] = test: ELISA of VEGF protein in RPE/choroid and retina of CNV mice; format: in vivo, mouse; conditions: RPE/choroid tissue of CNV mice, vs vehicle group, FIG. 8e
Experimental: (§1) Female C57BL/6J mice aged 7 to 8 weeks were anesthetized by intraperitoneally injecting a mixture of Ketamine 100 mg/kg and Xylazine 10 mg/kg, and by dropping 1% tropicamide (Alcon Laboratories Inc., Fort Worth, Tex., USA) in eyes, the pupils of the mice were expanded. Laser was irradiated in a direction of 3, 6, 9 and 12 o'clock direction of the 2 disc diameter in an optic disc by 831-nm 106 diode laser photocoagulation method (75 μm spot size, 0.1 sec duration time, 120 mW). Bubbling or pop sensing by laser photocoagulation was considered a successful rupture of the Bruch membrane. […]
The retina and RPE-choroid tissue were isolated from the control (naive; normal group in which CNV was not induced) CNV mouse (on day 3 after laser irradiation) or diabetic retinopathy mouse (on week 20 after STZ administration), and the isolated tissue was homogenized in ice-cold RIPA lysis buffer (Thermo Scientific, Rockford, Ill., USA) containing 1% protease inhibiting cocktail and 1% phosphatase inhibiting cocktail (GenDEPOT, Katy, Tex., USA). […] Secretion of VEGF was measured using ELISA Duoset system (R & D Systems, Minneapolis, Minn., USA) according to the manufacturer's instructions.

CNV mice [2] = test: Immunohistological staining for F4/80 and VEGF in RPE-choroid of CNV mice; format: in vivo, mouse; conditions: day 3 after laser irradiation
Experimental: (§2) Female C57BL/6J mice aged 7 to 8 weeks were anesthetized by intraperitoneally injecting a mixture of Ketamine 100 mg/kg and Xylazine 10 mg/kg, and by dropping 1% tropicamide (Alcon Laboratories Inc., Fort Worth, Tex., USA) in eyes, the pupils of the mice were expanded. Laser was irradiated in a direction of 3, 6, 9 and 12 o'clock direction of the 2 disc diameter in an optic disc by 831-nm 106 diode laser photocoagulation method (75 μm spot size, 0.1 sec duration time, 120 mW). Bubbling or pop sensing by laser photocoagulation was considered a successful rupture of the Bruch membrane.
(§3) To evaluate the anti-angiogenic effect by blocking lactic acid intake in macrophages, on day 1 after laser irradiation, when the macrophages began to infiltrate the laser irradiation site (image area), 3 mM α-CHC 2 μl or PBS (vehicle) 2 μl dissolved in PBS was intravitreally injected, and it was used in the following experiment.
Laser was irradiated to mice by the method of Referential example 2, and on day 3, eyes were extracted from mice, and fixed in 4% paraformaldehyde for 1 hour. After removing the retina, the RPE-choroid tissue was cultured with rat anti-mouse F4/80 (Bio-Rad, Richmond, Calif., USA) and APC conjugated anti-mouse VEGF (C-1; Santa Cruz Biotechnology, Inc.) at […] overnight. […] The regions of infiltrated macrophages and secreted VEGF were measured using ImageJ software.

HUVEC [3] = test: Tube formation assay in HUVEC with macrophage conditioned medium; format: cell-based, human; conditions: for tube formation: FIG. 6a
Experimental: Matrigel (Corning) with reduced growth factors was thawed at 4° C. overnight. Each well of the 24-well plate cooled in advance was coated with […] and incubated at 37° C. for 40 minutes. HUVEC (3×10^4 cells) was suspended in EGM-2 medium of 100 μl, and aliquoted in a macrophage conditioned medium of 400 μl, and cultured under the condition of 37° C., 5% CO2 for 12 hours. The macrophage conditioned medium means that 20 mM lactic acid is treated for 24 hours by stimulating macrophages (or macrophages pretreated for 1 hour with α-CHC) and the medium was replaced and then the supernatant was collected.
Endothelial cell tube formation was visualized by Calcein AM (Corning) and then imaging was conducted using Leica CTR6000 fluorescence microscope (Wetzlar, Germany). The number of the capillary-like structure was quantified by manual counting of low-power field (×10). For each well, 5 independent fields were evaluated, and the mean branch number per field (magnification, ×10) was measured.

CNV mice [4] = test: Quantification of choroidal neovascularization (IB4 staining) in CNV mice; format: in vivo, mouse; conditions: RPE-choroid tissue of CNV mice, day 7 after laser irradiation; vehicle group 141,472.9±49,186; FIG. 8f, 8g
Experimental: as §1
For evaluation of CNV, on day 1 after laser irradiation, PBS or α-CHC was injected in eyes, and in 6 days (on day 7 after laser irradiation), the RPE-choroid tissue isolated from the eyes of CNV mice was immunohistologically stained with Alexa-Fluor 594-conjugated IB4 (isolectin B4) (Molecular Probes) to visualize CNV. Images obtained by Olympus FV1000 Confocal Scanning Scope were treated in IMARIS imaging software (Bitplane, Zurich, Switzerland) to quantify the IB4-positive CNV amount.

THP-1 macrophages = test: VEGF expression/secretion in lactic acid-treated PMA-differentiated THP-1 macrophages (real-time PCR, ELISA); format: cell-based, human
Experimental: (§4) HUVEC (Human umbilical vein endothelial cell; Lonza Ltd., Basel, Switzerland) was cultured in EGM-2 (endothelial growth medium-2; Lonza). A human acute monocytic leukemia THP-1 cell line was maintained in RPMI medium containing 10% FBS (Gibco). 15 ng/ml PMA (Sigma-Aldrich Corp., St. Louis, Mo., USA) and THP-1 cells were cultured under the conditions of 37° C., 5% CO2 for 2 days, and the THP-1 cells were differentiated into macrophages.
The confluent ARPE-19 monolayer cells maintained in the 24-well plate were incubated with 10 mM L(+)-lactic acid (Sigma-Aldrich Corp.) under presence or absence of α-CHC (α-cyano-4-hydroxycinnamic acid; Sigma-Aldrich) which was an MCT inhibitor (monocarboxylate transporter inhibitor) of 3 mM for a specified period. HUVEC was inoculated to a 24-well plate at a density of 1×10^5/well, and when cells reached 60% to 70% confluence, cells were exposed to 10 mM L(+)-lactic acid under presence or absence of 3 mM α-CHC. The THP-1 cells were inoculated in a 24-well plate at a density of 3)(10^5/well, and they were differentiated into macrophages by PMA treatment, and then were cultured with 20 mM L(+)-lactic acid under presence or absence of 3 mM α-CHC.
In addition, the THP-1 cells were inoculated to a 24-well plate at a density of 3)(10^5/well, and were differentiated into macrophages by PMA treatment, and then were cultured with 20 mM L(+)-lactic acid, by treating SR13800 (Tocris Bioscience, Bristol, UK) at a concentration of 0.5 to 2 μM and AR-C155858 at a concentration of 300 to 500 nM, respectively, thereto.
Cells were treated with lactic acid for 24 hours. The medium was collected and centrifuged at 587 g for 5 minutes and particles were removed and stored at −80° C. before performing ELISA.
(§5) The retina and RPE-choroid tissue were isolated from the control (naive; normal group in which CNV was not induced) CNV mouse (on day 3 after laser irradiation) or diabetic retinopathy mouse (on week 20 after STZ administration), and the isolated tissue was homogenized in ice-cold RIPA lysis buffer (Thermo Scientific, Rockford, Ill., USA) containing 1% protease inhibiting cocktail and 1% phosphatase inhibiting cocktail (GenDEPOT, Katy, Tex., USA). After centrifuging at 15,871 g for 15 minutes, the isolated supernatant was used for ELISA analysis. Secretion of VEGF was measured using ELISA Duoset system (R & D Systems, Minneapolis, Minn., USA) according to the manufacturer's instructions.
Total RNA was extracted in cells using trizole (Invitrogen, Carlsbad, Calif., USA) according to the manufacturer's instructions. RNA concentration/quality was evaluated using a nanodrop spectrophotometer (NanoDrop Technology, Wilmington, Del., USA). An equal amount of RNA was under reverse transcription to cDNA using a reverse transcription kit (Enzynomics, Daejeon, Korea), and quantitative real-time PCR (ABI PRISM 7900, Applied Biosystems) was performed using SYBR Green PCR Master Mix (Applied Biosystems, Foster City, Calif., USA) to measure gene expression. In 12 minutes at 95° C., a cycle consisting of 10 seconds at 95° C. and 30 seconds at 60° C. was performed 50 times.
Relative mRNA expression of each sample was standardized by β-actin and RPL37A, and statistics were analyzed using Student's unpaired t-test. The sequences of primers used for amplification were disclosed in the following Table 1.

[5] = system: diabetic retinopathy-induced mice; test: IB4 staining of retina of STZ diabetic retinopathy-induced mice (bleeding and angiogenesis); format: in vivo, mouse; conditions: intraocular (intravitreal) injection, FIG. 14
Experimental: (§6) After administering STZ (streptozotocin, Sigma) to the peritoneal cavity of male C57BL6/J mice aged 7 to 8 weeks, whether high blood glucose was induced was confirmed by measuring blood glucose in 2 days. Mice of which blood glucose was induced to 400 mg/dL or more were selected, and used in the following experiment. From about 10 weeks after administering STZ, diabetic retinopathy began to appear.
(§7) At about day 140 after administrating STZ to the diabetic retinopathy-induced mice, 3 mM a-CHC 2 μl dissolved in PBS, 2 μM SR13800 2 μl dissolved in PBS, or PBS (vehicle) […] was intravitreally injected and it was used in the following experiment.
Eyes of mice in which diabetes was induced by STZ, prepared by the method of Referential example 3 were extracted and fixed in 4% paraformaldehyde for 1 hour. The anterior segment was removed, and then the retinal tissue was cultured with FITC-conjugated isolectin B4 (Sigma) at 4° C. overnight. After washing with PBS for 10 minutes 10 times using an orbital shaker at a room temperature, the stained tissue was examined under Olympus FV1000 Confocal Scanning Scope.

CNV mice [6] = test: Flow cytometry for VEGF in macrophages of CNV mice after intravitreal injection; format: in vivo, mouse; conditions: intravitreal 3 mM α-CHC 2 μl on day 1 after laser, vs vehicle group, FIG. 8a, 8b
Experimental: as §2, §3
After laser irradiation, on day 1, 3, 7, 14 and 21, laser-irradiated eyes were extracted. […]
Cells labeled using LSR-II cytometer (BD Biosciences, San Jose, Calif., USA) were analyzed and data were analyzed using FlowJo software (version 7.6.2, Ashland, Oreg., USA).

ARPE-19 = test: VEGF expression in lactic acid-treated ARPE-19 retinal pigment epithelium cells; format: cell-based, human; conditions: ARPE-19, 10 mM lactic acid vs untreated control; FIG. 4a
Experimental: Human APRE-19 cells were obtained from ATCC (Manassas, Va., USA), and were cultured in DMEM (Dulbecco's modified Eagle's medium)/F12 medium (1:1, USA) supplemented by 10% bovine fetal serum (FBS) (Gibco, Carlsbad, Calif.), 1% penicillin-streptomycin (Gibco) and 2 mM L-glutamine (Gibco) in a wet incubator under the conditions of 37° C., 5% CO2. For ARPE-19 monolayer culture, ARPE-19 cells were inoculated in a 24-well tissue culture plate (1.53105 cells per well; Corning, Corning, N.Y., USA) and were maintained in DMEM/F12 medium in which serum was reduced (1% FBS). Confluent monolayer culture having TER (Transepithelial resistance) of 40 Ωcm2 or more was used in the experiment. […]
(§8) Total RNA was extracted in cells using trizole (Invitrogen, Carlsbad, Calif., USA) according to the manufacturer's instructions. RNA concentration/quality was evaluated using a nanodrop spectrophotometer (NanoDrop Technology, Wilmington, Del., USA). An equal amount of RNA was under reverse transcription to cDNA using a reverse transcription kit (Enzynomics, Daejeon, Korea), and quantitative real-time PCR (ABI PRISM 7900, Applied Biosystems) was performed using SYBR Green PCR Master Mix (Applied Biosystems, Foster City, Calif., USA) to measure gene expression. […]

HUVEC [7] = test: VEGF expression in lactic acid-treated HUVEC; format: cell-based, human; conditions: 10 mM lactic acid vs untreated control, FIG. 4b
Experimental: as §4
The confluent ARPE-19 monolayer cells maintained in the 24-well plate were incubated with 10 mM L(+)-lactic acid (Sigma-Aldrich Corp.) under presence or absence of α-CHC (α-cyano-4-hydroxycinnamic acid; Sigma-Aldrich) which was an MCT inhibitor (monocarboxylate transporter inhibitor) of 3 mM for a specified period. […]
as §8

[8] = system: diabetic retinopathy-induced mice; test: ELISA of VEGF protein in retina and RPE-choroid of STZ diabetic retinopathy-induced mice; format: in vivo, mouse; conditions: intravitreal 2 μM SR13800 2 μl, FIG. 13
Experimental: as §6, §7, §5

N#CC(=Cc1ccc(O)cc1)C(=O)O [α-CHC, α-cyano-4-hydroxycinnamic acid]
amount of VEGF protein increased by CNV induction (CNV mice [1]): significantly reduced | VEGF positive region in the F4/80 stained macrophage region (CNV mice [2]; intravitreal injection, vehicle group 523,378±165,071, FIG. 8c, 8d): 383,738±196,716 μm2 | area of infiltrated macrophages (CNV mice [2]; vs vehicle group, FIG. 8d): no significant difference | number of branches (HUVEC [3]; HUVEC with supernatant of macrophages pretreated with α-CHC then lactic acid, vs only lactic acid, FIG. 6b): significantly reduced | tube formation (HUVEC [3]; HUVEC with supernatant of macrophages pretreated with α-CHC then lactic acid): reduced | IB4-positive endothelial cells (CNV amount) (CNV mice [4]): 74,160.6±12,339.5 μm^3 | VEGF secretion (VEGF expression) (THP-1 macrophages; THP-1 macrophages, lactic acid plus α-CHC vs only lactic acid, dependent on inhibitor concentration, FIG. 5): reduced | bleeding and angiogenesis increased in the diabetic retinopathy model [5]: reduced | VEGF expression (relative mean fluorescence intensity) (CNV mice [6]): significantly reduced

CC(O)C(=O)O (stereo not drawn) [lactic acid, L(+)-lactic acid]
increase of number of branches (HUVEC [3]; HUVEC with supernatant of lactic acid-stimulated macrophages vs lactic acid untreated group, FIG. 6b): about 5 times | tube formation (HUVEC [3]; HUVEC with supernatant of macrophages stimulated with 20 mM lactic acid): significantly increased | increase of VEGF expression after treatment of lactic acid (THP-1 macrophages; PMA-differentiated THP-1 macrophages, 20 mM lactic acid vs untreated control, FIG. 4c): ≥ 3 times | increase of VEGF secretion after stimulating with lactic acid (THP-1 macrophages; THP-1 macrophages, 24 hours, FIG. 5): about 5 times | gene transcriptome and protein expression for VEGF (ARPE-19): did not change significantly | gene transcriptome and protein expression for VEGF (HUVEC [7]): did not change significantly

CC(C)Cc1nn(C)c(=O)c2c(SCCCO)n(Cc3cccc4ccccc34)cc12 [SR13800]
VEGF expression in the RPE-choroid tissue ([8]; RPE-choroid tissue): did not affect | VEGF expression increased in the retinal tissue by induction of diabetic retinopathy ([8]; retinal tissue): significantly reduced | VEGF secretion (THP-1 macrophages; THP-1 macrophages, 20 mM lactic acid plus SR13800 0.5 to 2 μM vs only lactic acid, dependent on inhibitor concentration, FIG. 9a): reduced | bleeding and angiogenesis increased in the diabetic retinopathy model [5]: significantly reduced

Cc1n[nH]c(C)c1Cc1sc2c(c1C(=O)N1C[C@H](O)CO1)c(=O)n(C)c(=O)n2CC(C)C [AR-C155858]
VEGF expression increased by lactic acid (THP-1 macrophages; THP-1 macrophages, 20 mM lactic acid plus AR-C155858 300 to 500 nM, FIG. 9b): does not show significant changes
